# Laboratory results taken from ChEMBL document CHEMBL3507680, “University of Dundee, Gates Library screen for HepG2 cell viability”.
# Assay: Human HepG2 cell viability assay in 384 well format
# Assay type: toxicity, cell-based
# Design: dose 125 nL, time 70.5 hour; cytotoxicity at 70.5 h: concentration not given beside the values
# Details: HepG2 cells, read-out: Inhibition
row,SMILES,cytotoxicity at 70.5 h [%]
1,O=C1CC(N2CCN(c3ccc(O)cc3)CC2)C(=O)N1Cc1cccs1 (centres undefined),-7.69
2,O=c1c2c(ncn1CCO)nc1n2CCC1,-5.61
3,O=C1CC(N2CCN(c3ccc(F)cc3)CC2)C(=O)N1Cc1cccs1 (centres undefined),-12.3
4,Cn1cc(CN2CC[C@H]3C[C@@H](c4nc(C5CC5)cs4)O[C@@H]3C2)cn1,5.37
5,CN(C)C(=O)CO[C@@H]1CN(Cc2ccccc2)[C@@H]2CCCO[C@@H]21,6.93
6,O=C(O)c1ccc2c(c1)C1(CCCCC1)CN2C(=O)c1cccs1,-4.48
7,O=C(c1ccsc1)N1C[C@H]2CN(Cc3cccc(F)c3)C(=O)[C@H]2C1,-1.45
8,COCCC(=O)NCC1Cn2nnc(-c3cccc(F)c3)c2CO1 (centres undefined),-0.67
9,Cn1ccnc1CN1CC2(CCN(Cc3ccncc3)C2)C1,-0.993
10,Cc1nc(-c2nc(C(=O)N3CCOCC3)c3ccccn23)cn1C(C)C,-5.18
11,Cc1cccc(CN2C[C@@H]3CN(C(=O)c4cnccn4)C[C@@H]3C2=O)c1,-2.3
12,O=C(c1ccoc1)N1CCC2(C1)CN(c1nccs1)C2,-2.55
13,Cc1ccc2c(c1)CCC21CCN(CCO)CC1,-1.71
14,COCC(=O)N1C[C@H]2CC[C@@]3(N=C(c4ccccc4)NC3=O)[C@H]2C1,-3.3
15,O=C(N1CCCC1)N1C[C@H]2CC[C@@]3(N=C(c4ccccc4)NC3=O)[C@H]2C1,12.6
16,Cc1cnc(C(=O)N2C[C@@H]3[C@@H](C2)OCC(=O)N3CC2CCCC2)cn1,15.5
17,O=C(C1CCOC1)N1CCc2ncnc(-c3cccnc3)c2CC1 (centres undefined),15.9
18,CC(=O)N1[C@H](Cn2cncn2)C[C@@H]2CN(C(=O)NC3CC3)CC[C@@H]21,5.13
19,O=C(C1CCOC1)N1CCc2ncnc(C3CC3)c2CC1 (centres undefined),0.686
20,O=C(c1cnccn1)N1C[C@@H]2[C@@H](C1)OCC(=O)N2CC1CCCC1,1.12
21,CN1CCN(Cc2cn3c(n2)CN(C(=O)N2CCCC2)CC3)CC1,0.892
22,CCN1C[C@H]2CCN(c3ncccn3)CC[C@H]2S1(=O)=O,1.89
23,O=C(c1ccco1)N1CCCC2(CN(Cc3ccoc3)CCO2)C1 (centres undefined),-0.421
24,O=C([C@H]1COC[C@H]2CN(C3CCOCC3)C[C@H]21)N1CCCCO1,4.24
25,O=C(NCC1CC1)C1CN(C(=O)Cc2cccs2)CC12CCOCC2 (centres undefined),1.89
26,CCOCC1CN(C(=O)c2cccs2)Cc2nn(C)cc21 (centres undefined),-2.33

row,SMILES,cytotoxicity at 70.5 h [%]
1,Cc1cnc(C(=O)N2C[C@H]3CCCC(OCc4cccnc4)[C@H]3C2)cn1 (some centres undefined),-3.45
2,COCc1cnc2n1CCN(C(=O)C1=CCCCC1)C2C (centres undefined),17.6
3,COc1ncccc1C(=O)N1CC[C@H]2C[C@@H](C)O[C@@H]2C1,-21.5
4,O=C1CCC2(CCN(c3ncc(F)cn3)CC2)N1CCN1CCCC1,25.9
5,O=C1NC2(CCN(C(=O)Cc3ccsc3)CC2)CC1c1ccncc1 (centres undefined),-4.21
6,CN(C)C(=O)NC1COC2(CCN(Cc3nccn3C)CC2)C1 (centres undefined),2.06
7,O=C(c1ccc2[nH]ccc2c1)N1CCn2cnc(COCC3CC3)c2C1,-4.35
8,CCC1=N[C@@]2(CC[C@@H]3CN(S(=O)(=O)N(C)C)C[C@@H]32)C(=O)N1CC(C)C,-3.81
9,CCc1ccc(NC(=O)N2C[C@H]3C[C@H](C(=O)NC)[C@@H](C2)O3)cc1,3.53
10,CN(C)Cc1nn(C)c2c1CCN(S(=O)(=O)c1cccs1)C2,1.38
11,CCO[C@@H]1CO[C@@]2(CCCN(C(=O)COc3ccccc3OC)C2)C1,-9.81
12,Cn1ncc2c1C(COCC1CC1)CN(Cc1nccs1)C2 (centres undefined),6.16
13,CO[C@@H]1CC[C@H]2[C@H]1OCCN2C(=O)c1ccc(C)o1,46.9
14,Cc1ccsc1C(=O)N1CC(C(=O)NCC2CC2)C2(CCOCC2)C1 (centres undefined),7.19
15,Cc1ccsc1C(=O)N1CC(C(=O)N2CCOCC2)C2(CCOCC2)C1 (centres undefined),24.8
16,O=C(c1cscn1)N1C[C@@H]2C[C@@H](c3nnc(C4CC4)o3)O[C@@H]2C1,-8.28
17,Cc1ncsc1CN1CC[C@H]2C[C@H](c3ccncn3)O[C@@H]2C1,-12.4
18,O=C(CC1CC1)N1CCn2cc(Cn3cncn3)nc2C1,-18.5
19,COCC(=O)N1Cc2cn(C)nc2C(COc2cccnc2)C1 (centres undefined),9.02
20,CCOc1cc(C(=O)n2cccn2)cc(OCC)c1OCC,-6.27
21,Cc1c(Br)cnn1CC(=O)Nc1ccon1,-7.55
22,Cc1cc(NC(=O)Cn2ncc(Br)c2C)no1,-2.58
23,O=C(c1n[nH]cc1Cl)N1CCSCC1,-9.46
24,CCCN1C(=O)c2ccccc2C1OC (centres undefined),-6.48
25,CNC(=O)C1CCN(S(C)(=O)=O)CC1,-10.2
26,O=C(O)c1cccc2c(Br)cccc12,-0.692

row,SMILES,cytotoxicity at 70.5 h [%]
1,Cc1ccc(CNC(=O)CCC(=O)NCCC(C)C)o1,18.9
2,O=C(CCC(=O)NCc1cccc(Br)c1)NCCN1CCCC1,23.6
3,CN(C)c1nc2n(c(=O)n1)CCN2C(=O)Nc1ccc(Cl)cc1,-6.29
4,CN(C)c1nc2n(c(=O)n1)CCN2C(=O)Nc1ccc(Cl)c(Cl)c1,-10.9
5,Cc1cnc(C(=O)N2CCCn3c(nc(CN(C)C)cc3=O)C2)cn1,9.93
6,CNC(=O)[C@H]1C[C@@H]2CN(S(=O)(=O)Cc3ccccc3)C[C@@H]2N1C,-3.87
7,COc1ccc(CN2CCOC3(CCCN(C(C)=O)C3)C2)cc1 (centres undefined),-1.06
8,Cc1cnc(N2CC3(CCN(C(=O)c4cccnc4)C3)C2)nc1,-4.83
9,Cc1cccc(CN2C[C@@H]3CN(C(=O)c4ccsc4)C[C@@H]3C2=O)n1,-2.24
10,O=C([C@@H]1COC[C@H]2CN(C3CCOCC3)C[C@H]21)N1CCCO1,14.5
11,O=C1CC2(CCCCN2C(=O)c2ccco2)CN1c1cccnc1 (centres undefined),15.4
12,Cn1cccc1C(=O)N1CCCCC12CC(=O)N(c1cccnc1)C2 (centres undefined),-3.4
13,COc1cccc(CN2CCC3(CCN(C(=O)C4CC=CC4)CC3)C2)c1,-3.83
14,CC(=O)NCC(=O)N1CCn2cc(CN3CCCCC3)nc2C1,-1.68
15,O=C(C1CC1)N1CCC2(CCN(Cc3cccc(F)c3)CC2)CC1,-0.144
16,CC(=O)N1[C@H](Cn2cncn2)C[C@@H]2CN(c3ncc(F)cn3)CC[C@@H]21,-0.528
17,O=C([C@H]1COC[C@H]2CN(C3CCOCC3)C[C@H]21)N1CCCO1,-1.26
18,O=C(c1ccco1)N1CCCC2(CN(Cc3ccsc3)CCO2)C1 (centres undefined),-5.26
19,O=C(c1ccco1)N1CCCC2(CN(Cc3cccs3)CCO2)C1 (centres undefined),1.5
20,COCC(=O)N1CCO[C@H]2[C@H](OCc3cccnc3)CC[C@@H]21,1.22
21,CN1CCN(C(=O)NC2CCCC2)Cc2cccnc21,-4.32
22,Cc1nc(CN2CCOCC3(CCCN(c4cnccn4)C3)C2)cs1 (centres undefined),-2.38
23,O=C(NC[C@]12COC[C@H]1CN(Cc1nccs1)C2)N1CCCC1,-13.4
24,O=C(C[C@@H]1COC[C@H]2CN(Cc3ccc(F)cc3)C[C@@H]12)N1CCCCO1,-14.5
25,COC1COC2(CCN(Cc3ccccc3Cl)CC2)C1 (centres undefined),-14.5
26,O=C1CC[C@H]2[C@H](CCN2C(=O)C2CCOCC2)N1Cc1ccncc1,-15.6

row,SMILES,cytotoxicity at 70.5 h [%]
1,CNC(=O)[C@@]12CCCN(c3ncccn3)[C@@H]1CN(C)C2,29.8
2,Cc1ncsc1CN1CC[C@H]2OCC[C@@]2(C(=O)NC(C)C)C1,33.4
3,Cc1ccc(C(=O)N2CCn3cc(CN4CCCCC4)nc3C2)o1,35.2
4,CNC(=O)[C@H]1C[C@H]2OCC[C@H]2N(Cc2ccc(C)o2)C1,3.85
5,Cc1nnc(N2C[C@H](C(=O)NCC3CC3)[C@@H]3CCO[C@@H]3C2)s1,-4
6,CCOCC1CN(C(=O)c2cccn2C)Cc2cnn(CC3CC3)c21 (centres undefined),0.525
7,O=C(c1ncccn1)N1C[C@H]2CCC[C@@]2(COCc2ccncc2)C1,9.21
8,Cn1cnc2c1C(COCC1CC1)CN(C(=O)Cc1ccsc1)C2 (centres undefined),-3.95
9,CN(C)S(=O)(=O)N1C[C@@H](Oc2ccccn2)[C@H]2OCCC[C@H]21,-7.76
10,Cn1nc(C#N)c2c1CN(C(=O)c1cccnc1)CCC2,29.4
11,Cc1ccc(N2CC3(COCCN(Cc4nccs4)C3)OCC2=O)s1 (centres undefined),-10.7
12,CCOC(=O)[C@]12CCCN(Cc3nccs3)C[C@H]1CN(C(C)=O)C2,-13.3
13,c1ccc(Cn2cc3c(n2)C(COCC2CC2)OCC3)nc1 (centres undefined),8.53
14,CN(C)S(=O)(=O)N1CCC[C@]2(C[C@@H](Oc3ccccn3)CO2)C1,-17.2
15,COc1ccc(CN2CCC3(CCN(c4cccnc4)C3=O)C2)cc1 (centres undefined),1.92
16,c1cncc(COCc2nnc3n2CCN(CC2CC2)C3)c1,0.791
17,Cc1ncsc1CN1CCO[C@H]2[C@H](Oc3ccccn3)CC[C@@H]21,-1.48
18,Fc1cccnc1O[C@@H]1CC[C@H]2[C@H]1OCCN2Cc1nccs1,-2.76
19,CN(C)[C@@H]1CCN(c2ncc(F)cn2)[C@H]1Cc1ccccc1,-4.36
20,COCCC(=O)N1CCn2cc(CN3CCN(C)CC3)nc2C1,0.542
21,Cc1cccc(CO[C@@H]2CC[C@H]3[C@H]2OCCN3Cc2nccs2)n1,-0.937
22,CN(C)[C@@H]1CCN(c2ncc(F)cn2)[C@H]1Cc1cccnc1,17.3
23,Cc1cnc(N2CC[C@H]3[C@@H]2CCC(=O)N3c2cccnc2)nc1,-2.59
24,CC(C)N1CCOCC2(CN(Cc3nccs3)CCO2)C1 (centres undefined),-0.368
25,c1ccc(CO[C@@H]2CO[C@@]3(CCN(Cc4ccccn4)C3)C2)nc1,-16
26,CC(C)N1CCOCC2(CN(Cc3ccccn3)CCO2)C1 (centres undefined),-2.31
